Measured values reported in US20170176439A1, “MARKERS AND THERAPEUTIC INDICATORS FOR GLIOBLASTOMA MULTIFORME (GBM)” (Institute for Systems Biology, priority 2014, published 2017).

Assays:
[1] = tested on: healthy neural stem cells (NSCs); assay: GBMSig cell-surface expression in healthy NSCs with TGF-β1 or inhibitor; format: cell-based
Method: [The source words this procedure for another cell line and reports this cell line under the same test.] The expression of the selected GBMSig proteins responsive to TGF-β viz. SLC16A1, HMOX1, MRC2, SLC16A3, CD47, and CD97 was also tested in primary GBM cells from SN143 tumor tissues in the presence of TGF-β or its inhibitor by flow cytometry. […] EGFR, EGFRVIII, and PTEN altered in GBM can create further heterogeneities in TGF-β responsiveness as observed through the expression of various GBMSig proteins.

[2] = tested on: C-terminal phosphorylation of SMAD2; assay: C-terminal phosphorylation of SMAD2 in U87 cells; format: cell-based
Method: (§1) To identify markers for subjects that may benefit from this treatment, astrocytoma cell line U87 was serum starved overnight and treated with 10 ng/ml TGF-β1 for 40 hrs. […] However, as serum contains many essential elements and growth factors, the effect of serum starvation on cells might not be specific to the inhibition of TGF-β signaling. Therefore, we employed a TGF-β-inhibitor (SB 431542) known to interfere with the C-terminal phosphorylation of SMAD2. […] Thus in subsequent SRM analysis, TGF-β-inhibitor was used instead of serum starving.

[3] = tested on: primary GBM cells from SN143 tumor tissues; assay: Flow cytometry of GBMSig expression in primary GBM cells from SN143 tumor tissue with TGF-β or its inhibitor; format: cell-based
Method: The expression of the selected GBMSig proteins responsive to TGF-β viz. SLC16A1, HMOX1, MRC2, SLC16A3, CD47, and CD97 was also tested in primary GBM cells from SN143 tumor tissues in the presence of TGF-β or its inhibitor by flow cytometry.

U-87 cells = conditions: U-87, flow cytometry
Method: In an alternate assay, six GBMSig proteins viz. SLC16A1, MRC2, CD47, SLC16A3, HMOX1, and CD97 were tested as downstream factors of TGF-β signaling by flow cytometry. TGF-β or TGF-β inhibitor treated intact U-87 cells were analyzed by flow cytometry and the ratio of the respective GBMSig expression in response to TGF-β1 over its inhibitor was obtained.

U87 cell line = assay: d-SRM assays of GBMSig protein expression in U87 cell line after TGF-β vs TGF-β-inhibitor treatment; format: cell-based
Method: Novel TGF-β responsive elements were identified among GBMSig through experimental validation. […] U87 cells were treated with TGF-β1 or its inhibitor alone or sequentially with inhibitor followed by TGF-β1. Changes in expressions of GBMSig proteins following such treatments were measured by SRM assays.
as §1

[4] = tested on: isogenic cell lines of U87 (EGFR, EGFRVIII, PTEN); assay: Cell-surface GBMSig expression in response to TGF-β in U87 isogenic cell lines; format: cell-based
Method: Isogenic cell lines of U87 where key proliferative genes such as EGFR and EGFRVIII are overexpressed alone or in combination with PTEN were tested for molecular responsiveness of isogenic cell lines towards TGF-β treatment. In EGFR and EGFRVIII isogenic cell lines, there was elevated surface expression of SLC16A1 and HMOX1 in response to TGF-β treatment. PTEN expression, however, inhibited this effect, indicating possible involvement of a tumor suppressor PTEN in modulating the surface expression of these proteins in GBM. On the other hand, MRC2 and CD47 were up regulated in response to TGF-β treatment when PTEN was overexpressed.
Commonly mutated GBM genes include EGFR, EGFRVIII, and PTEN. Four isogenic cell lines of U87 in which these genes are expressed alone or in combinations of EGFRVIII and PTEN or EGFR and PTEN via a stably integrated retroviral vector were used (Gini, B., et al., Clin Cancer Res. (2013) 19:5722-5732).
There was an increase in the cell-surface expression of CD47, SLC16A3, MRC2, HMOX1 and SLC16A1 in response to TGF-β in all U87 isogenic cell lines similar to that of the parental cell line.

[5] = U87 isogenic overexpressing EGFR
[6] = U87 isogenic overexpressing EGFRVIII
[7] = primary GBM cells from SN143 tissue, flow cytometry

Compound: NC(=O)c1ccc(-c2nc(-c3ccc4c(c3)OCO4)c(-c3ccccn3)[nH]2)cc1 [SB 431542]
- expression of MRC2, CD47, SLC16A3 and CD97 after TGF-β-inhibitor treatment ([1]; NSCs): increased expression
- effect on SLC16A1, HMOX1 and CD97 expression ([1]; healthy NSCs): little or no effect
- expression of CD47 in response to TGF-β-inhibitor treatment compared to TGF-β1 treatment ([1]; healthy NSCs): 0.61 fold
- expression of MRC2 in response to TGF-β-inhibitor treatment compared to TGF-β1 treatment ([1]; healthy NSCs): 0.19 fold
- C-terminal phosphorylation of SMAD2 ([2]; cells in normal media (DMEM+10% FCS) supplemented with inhibitor): dampened or diminished
- increase in surface expression of HMOX1 in response to TGF-β-inhibitor treatment relative to TGF-β treatment ([3]; SN143 tumor-derived GCSC populations): 30%

Compound: TGF-β1: TGF-β1, inducer of epithelial to mesenchymal transition, used at 10 ng/ml to treat cells
- increase of ratio of cell-surface CD47, TGF-β over TGF-β inhibitor (U-87 cells): 40%
- increase of ratio of cell-surface HMOX1, TGF-β over TGF-β inhibitor (U-87 cells): 20%
- increase of ratio of cell-surface MRC2, TGF-β over TGF-β inhibitor (U-87 cells): 25%
- increase of ratio of cell-surface SLC16A1, TGF-β over TGF-β inhibitor (U-87 cells): 20%
- increase of ratio of cell-surface SLC16A3, TGF-β over TGF-β inhibitor (U-87 cells): 30%
- increase of ratio of cell-surface CD97, TGF-β over TGF-β inhibitor (U-87 cells; essentially no change): 1.1 fold
- CD109 expression following TGF-β treatment relative to TGF-β-inhibitor alone (U87 cell line): 2.09 fold
- CLCC1 expression following TGF-β treatment relative to TGF-β-inhibitor alone (U87 cell line): 2.26 fold
- CRTAP expression following TGF-β treatment relative to TGF-β-inhibitor alone (U87 cell line): 2.12 fold
- DDR2 expression following TGF-β treatment relative to TGF-β-inhibitor alone (U87 cell line): 3.53 fold
- ITGA7 expression following TGF-β treatment relative to TGF-β-inhibitor alone (U87 cell line): 9.45 fold
- MGST1 expression following TGF-β treatment relative to TGF-β-inhibitor alone (U87 cell line): 2.77 fold
- MRC2 expression following TGF-β treatment relative to TGF-β-inhibitor alone (U87 cell line): 3.06 fold
- PTGFRN expression following TGF-β treatment relative to TGF-β-inhibitor alone (U87 cell line): 2.18 fold
- SLC16A1 expression following TGF-β treatment relative to TGF-β-inhibitor alone (U87 cell line): 2.05 fold
- TGFBI expression following TGF-β treatment relative to TGF-β-inhibitor alone (U87 cell line): 10.54 fold
- TNC expression following TGF-β treatment relative to TGF-β-inhibitor alone (U87 cell line): 6.55 fold
- enrichment of CD47, VCAM1, MYOF, ABCA1, CD44, S100A10, CA12 and SLC16A3 on TGF-β treatment vs. TGF-β-inhibitor treatment (U87 cell line): > 1.3 fold
- expression of CD97, SCAMP3, PDIA4, CD99, ABCA1, TMX1, RTN4 and CD151 following TGF-β treatment in comparison to inhibitor treatment (U87 cell line): remained largely unchanged
- expression of the 11 proteins when TGF-β-inhibitor treated cells were retreated with TGF-β (U87 cell line): overexpressed
- expression of ASPH, NRP1, CD276 and HMOX1 following TGF-β treatment (U87 cell line; vs inhibitor treatment): relatively reduced
- expression of HMOX1 in response to TGF-β ([4]; EGFR+PTEN cells): 1.058 fold
- expression of SLC16A1 in response to TGF-β ([4]; EGFR+PTEN cells): 0.724 fold
- expression of CD97 ([4]; EGFRVIII alone): 0.75±0.010 fold
- expression of SLC16A3 ([4]; EGFRVIII alone): 0.97 fold
- expression of CD97 ([4]; EGFRVIII+PTEN cells): 1.51 fold
- expression of HMOX1 in response to TGF-β ([4]; EGFRVIII+PTEN cells): 1.48 fold
- expression of SLC16A1 in response to TGF-β ([4]; EGFRVIII+PTEN cells): 1.19 fold
- expression of SLC16A3 ([4]; EGFRVIII+PTEN cells): 1.3 fold
- increase in expression of HMOX1 in response to TGF-β compared to the parental cell line [4, 5]: 2.69 fold
- increase in expression of SLC16A1 in response to TGF-β compared to the parental cell line [4, 5]: 1.5±0.028 fold
- increase in expression of HMOX1 in response to TGF-β compared to the parental cell line [4, 6]: 2.13 fold
- increase in expression of SLC16A1 in response to TGF-β compared to the parental cell line [4, 6]: 1.75 fold
- cell-surface expression of CD47, SLC16A3, MRC2, HMOX1 and SLC16A1 in response to TGF-β ([4]; all U87 isogenic cell lines, similar to parental cell line): increase
- MRC2 and CD47 expression in response to TGF-β treatment ([4]; when PTEN was overexpressed): up regulated
- changes in cell-surface expression of SLC16A1, HMOX1, MRC2, CD47, SLC16A3 and CD97 in response to TGF-β treatment ([1]; NSCs): no significant changes
- effect on SLC16A1, HMOX1 and CD97 expression ([1]; healthy NSCs): little or no effect
- C-terminal phosphorylation of SMAD2 ([2]; U87 serum starved overnight, 10 ng/ml TGF-β1 for 40 hrs, in comparison to cells in serum-free media): increased
- expression of HMOX1 when treated with TGF-β1 compared to its inhibitor [3, 7]: 0.77 fold
- expression of MRC2 when treated with TGF-β1 compared to its inhibitor [3, 7]: 1.62 fold
- expression of SLC16A1 when treated with TGF-β1 compared to its inhibitor [3, 7]: 0.79 fold
